In patent publication US11470793B2, “Bacterial strain having anti-fungal properties and uses thereof” (Kontzamanis Graumann Smith MacMillan Inc., priority 2019, dated 2022):

System: F. graminearum 3ADON (high toxin producing strain)
Type: cell-based, Fusarium graminearum

In the case of CC(/C=C/[C@@]1(C)[C@H](C)CCC(=O)[C@@H]1C)=C\Cc1c(O)cc(C)c(C=O)c1O [cylindrol B, 4-dihydroxy-6-methyl-3-[(2E,4E)-3-methyl-5-[(1R,2R,6R)-1,2,6-trimethyl-3-oxocyclohexyl]penta-2,4-dienyl]benzaldehyde], the “clearing of fungus around the well” value is reported as “showed a clearing of fungus around the well”.
